In the supplement of paper PMC10307832:

Legend:
Experiment in all cases: relative viability (nuclei count vs DMSO), 5 days (fraction); higher = more cells survive
Olaparib + Tozasertib = compound: O=C(c1cc(Cc2n[nH]c(=O)c3ccccc23)ccc1F)N1CCN(C(=O)C2CC2)CC1 [Olaparib] + Cc1cc(Nc2cc(N3CCN(C)CC3)nc(Sc3ccc(NC(=O)C4CC4)cc3)n2)n[nH]1 [Tozasertib] (partner 0.1 µM)
How it was run: (§1)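 Relative viability was taken as the ratio of nuclei in treated wells to nuclei in vehicle wells. Lung cancer cell lines in 1536-well plates received compounds by pin tool one day after seeding, either one drug alone or a fixed anchor-drug dose plus five library-drug doses (not always all listed) in √10 steps. Nuclei were counted on 4× images after 5 days of treatment, and values are medians of duplicate plates.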

Olaparib + Palbociclib = compound: O=C(c1cc(Cc2n[nH]c(=O)c3ccccc23)ccc1F)N1CCN(C(=O)C2CC2)CC1 [Olaparib] + CC(=O)c1c(C)c2cnc(Nc3ccc(N4CCNCC4)cn3)nc2n(C2CCCC2)c1=O [Palbociclib] (partner 0.5 µM)
How it was run: as §1

Crizotinib + Pictilisib = compound: C[C@@H](Oc1cc(-c2cnn(C3CCNCC3)c2)cnc1N)c1c(Cl)ccc(F)c1Cl [Crizotinib] + CS(=O)(=O)N1CCN(Cc2cc3nc(-c4cccc5[nH]ncc45)nc(N4CCOCC4)c3s2)CC1 [Pictilisib] (partner 1 µM)
How it was run: as §1

Olaparib + Pictilisib = compound: O=C(c1cc(Cc2n[nH]c(=O)c3ccccc23)ccc1F)N1CCN(C(=O)C2CC2)CC1 [Olaparib] + CS(=O)(=O)N1CCN(Cc2cc3nc(-c4cccc5[nH]ncc45)nc(N4CCOCC4)c3s2)CC1 [Pictilisib] (partner 1 µM)
How it was run: as §1

Cell Line | relative viability (Olaparib + Tozasertib; first compound 0.08 µM) | relative viability (Olaparib + Tozasertib; first compound 0.253 µM) | relative viability (Olaparib + Tozasertib; first compound 2.53 µM) | relative viability (Olaparib + Tozasertib; first compound 8 µM) | relative viability (Olaparib + Palbociclib; first compound 0.08 µM) | relative viability (Olaparib + Palbociclib; first compound 0.253 µM) | relative viability (Olaparib + Palbociclib; first compound 2.53 µM) | relative viability (Olaparib + Palbociclib; first compound 8 µM) | relative viability (Crizotinib + Pictilisib; first compound 0.01 µM) | relative viability (Crizotinib + Pictilisib; first compound 0.03162 µM) | relative viability (Crizotinib + Pictilisib; first compound 0.1 µM) | relative viability (Crizotinib + Pictilisib; first compound 0.3162 µM) | relative viability (Crizotinib + Pictilisib; first compound 1 µM) | relative viability (Olaparib + Pictilisib; first compound 0.08 µM) | relative viability (Olaparib + Pictilisib; first compound 0.253 µM) | relative viability (Olaparib + Pictilisib; first compound 2.53 µM) | relative viability (Olaparib + Pictilisib; first compound 8 µM)
HARA | 0.14 | 0.0884 | 0.0969 | 0.0782 | 0.216 | 0.268 | 0.271 | 0.276 | 0.351 | 0.441 | 0.262 | 0.511 | 0.46 | 0.407 | 0.454 | 0.567 | 0.37
LC-2-ad | 0.554 | 0.429 | 0.436 | 0.437 | 0.472 | 0.451 | 0.493 | 0.399 | 0.473 | 0.426 | 0.461 | – | 0.44 | 0.529 | 0.523 | 0.491 | 0.336
UMC-11 | 0.231 | 0.208 | 0.235 | 0.253 | 0.286 | – | 0.317 | 0.31 | 0.753 | 0.854 | 0.803 | 0.161 | 0.785 | 0.909 | 0.687 | 0.658 | 0.307
EMC-BAC-2 | 0.284 | 0.296 | 0.279 | 0.262 | 0.518 | 0.512 | 0.517 | 0.472 | 0.514 | 0.536 | 0.527 | 0.305 | 0.52 | 0.662 | 0.5 | 0.524 | 0.496
COR-L 105 | 0.368 | 0.351 | 0.319 | 0.275 | 0.401 | 0.409 | 0.404 | 0.398 | 0.353 | 0.386 | 0.39 | 0.354 | 0.403 | 0.389 | 0.392 | 0.415 | 0.387
NCI-H2347 | 0.548 | 0.48 | 0.483 | 0.54 | 0.381 | 0.431 | 0.393 | 0.409 | 0.624 | 0.69 | 0.551 | 0.731 | 1.05 | 1.28 | 0.557 | 0.683 | 0.547
HCC-78 | 0.399 | 1.61 | 0.41 | 0.486 | 0.414 | 0.424 | 0.486 | 0.464 | 0.204 | 0.206 | 0.205 | 0.167 | 0.204 | 0.241 | 0.204 | 0.208 | 0.196
NCI-H1650 | 0.475 | 0.391 | 0.372 | 0.361 | 0.478 | 0.324 | 0.331 | 0.335 | 0.516 | 0.584 | 0.573 | 0.535 | 0.559 | 0.866 | 0.523 | 0.572 | 0.647
COR-L23 | 0.22 | 0.192 | 0.176 | 0.12 | 0.314 | 0.241 | 0.223 | 0.14 | 0.695 | 0.747 | 0.705 | 0.771 | 0.775 | 0.918 | 0.674 | 0.724 | 0.385
